From BigSolDB 2.1

O=C(O)c1ccccc1
solubility (mole fraction)
Conditions | in chloroform | in cyclohexane | in ethanol | in n-heptane | in n-pentane | in toluene
278.15 K | 0.074 | – | 0.128 | 0.005 | 0.004 | 0.035
283.15 K | 0.086 | 0.006 | 0.139 | 0.006 | 0.005 | 0.043
293.15 K | 0.114 | 0.009 | 0.166 | 0.01 | 0.007 | 0.062
303.15 K | 0.151 | 0.015 | 0.196 | 0.015 | 0.011 | 0.089
313.15 K | 0.196 | 0.025 | 0.234 | 0.022 | – | 0.128
323.15 K | 0.253 | 0.039 | 0.276 | 0.033 | – | 0.178
